Reference: patent publication US20240269298A1, “PHOSPHONYL DERIVATIVE, AND COMPOSITION AND PHARMACEUTICAL APPLICATION THEREOF” (XIZANG HAISCO PHARMACEUTICAL CO., LTD., priority 2021, published 2024)
Read-outs that look alike come from different tables or passages of the source.

Test system: NCI-H1975 (EGFR-L858R-T790M) cells
Experiment: Inhibitory activity on proliferation of NCI-H1975 (EGFR-L858R-T790M) cells (CTG, 72 h)
Assay type: cell-based
Conditions: Homo sapiens
Protocol: NCI-H1975 (EGFR-L858R-T790M) and A431 (EGFR-WT) cells were purchased from ATCC and cultured in an incubator at 37° C. with 5% CO2, and the culture mediums were RPMI1640+10% FBS and DMEM+10% FBS, respectively. On the first day, NCI-H1975 (EGFR-L858R-T790M) and A431 (EGFR-WT) cells in the logarithmic phase were collected, and viable cells were counted using an automatic cell analyzer (countstar). The cell suspensions were adjusted with the culture mediums and plated on a 96-well cell culture plate at 1000 cells/well for NCI-H1975 (EGFR-L858R-T790M) cells and at 3000 cells/well for A431 cells. The next day, the culture mediums were aspirated, and 90 μL of fresh culture mediums and 10 μL of the compounds at different concentrations were added to each well, wherein the final concentration of DMSO in each well was 0.1%. The plate was cultured in the incubator at 37° C. with 5% CO2 for 72 hours. After 72 hours of drug treatment, 50 μL of CTG solution (promega, G7572), which was already pre-melted and equilibrated to room temperature, was added to each well, and the mixtures were uniformly mixed for 2 min using a microplate shaker. The plate was placed at room temperature for 10 min, and then […] signal values were measured using a microplate reader (PHERAstar FSX).
Surviving cells % was calculated based on Vsample/Vvehicle control×100%, wherein Vsample was the readout of the drug-treated group, and Vvehicle control was the average value of the vehicle control group. Using the origin 9.2 software and nonlinear regression model, S-shaped dose-survival curves were plotted, and IC50 values were calculated.

[1] = read-out: IC50 (value in brackets)

IC50 (read-out: IC50 (class symbol)) [nM] | IC50 [1] [nM] | SMILES
< 100 | 39 | COc1cc(N2CCC(CN3CCC4(CC3)CCN(c3ccc(C(=O)NC5CCC(=O)NC5=O)nc3)CC4)CC2)c(-c2cnn(C)c2)cc1Nc1ncc(Cl)c(Nc2ccc(-c3ccccc3)cc2P(C)(C)=O)n1 (stereo not shown) [Compound 70, 5-(9-((1-(4-((5-chloro-4-((3-(dimethylphosphoryl)-[1,1′-biphenyl]-4-yl)amino)pyrimidin-2-yl)amino)-5-methoxy-2-(1-methyl-1H-pyrazol-4-yl)phenyl)piperidin-4-yl)methyl)-3,9-diazaspiro[5.5]undecan-3-yl)-N-(2,6-dioxopiperidin-3-yl)picolinamide]
100 to 500 | 182 | COc1cc(N2CCC(N3CCC(CN4CCN(c5ccc6c(c5)C(=O)N(C5CCC(=O)NC5=O)C6=O)CC4)CC3)CC2)c(-c2cnn(C)c2)cc1Nc1ncc(Cl)c(Nc2ccc(-c3ccccc3)cc2P(C)(C)=O)n1 (stereo not shown) [Compound 53, 5-(4-((1′-(4-((5-chloro-4-((3-(dimethylphosphoryl)-[1,1′-biphenyl]-4-yl)amino)pyrimidin-2-yl)amino)-5-methoxy-2-(1-methyl-1H-pyrazol-4-yl)phenyl)-[1,4′-bipiperidin]-4-yl)methyl)piperazin-1-yl)-2-(2,6-dioxopiperidin-3-yl)isoindoline-1,3-dione]
< 100 | 46 | COc1cc(N2CCC(CN3CCN(c4ccc(C5CCC(=O)NC5=O)c(F)c4)CC3)CC2)c(-c2cnn(C)c2)cc1Nc1ncc(Cl)c(Nc2ccccc2P(C)(C)=O)n1 (stereo not shown) [Compound 154, 3-(4-(4-((1-(4-((5-chloro-4-((2-(dimethylphosphoryl)phenyl)amino)pyrimidin-2-yl)amino)-5-methoxy-2-(1-methyl-1H-pyrazol-4-yl)phenyl)piperidin-4-yl)methyl)piperazin-1-yl)-2-fluorophenyl)piperidine-2,6-dione]
< 100 | 73 | COc1cc(N2CCC(N3CCC(CN4CCC5(CCCN(c6ccc7c(c6)C(=O)N(C6CCC(=O)NC6=O)C7=O)C5)CC4)CC3)CC2)c(-c2cnn(C)c2)cc1Nc1ncc(Cl)c(Nc2ccc3nccnc3c2P(C)(C)=O)n1 (stereo not shown) [Compound 16, 5-(9-((1′-(4-((5-chloro-4-((5-(dimethylphosphoryl)quinoxalin-6-yl)amino)pyrimidin-2-yl)amino)-5-methoxy-2-(1-methyl-1H-pyrazol-4-yl)phenyl)-[1,4′-bipiperidin]-4-yl)methyl)-2,9-diazaspiro[5.5]undecan-2-yl)-2-(2,6-dioxopiperidin-3-yl)isoindoline-1,3-dione]
< 100 | 33 | COc1cc(N2CCC(N3CCC4(CCCN(c5cc6c(cc5F)C(=O)N(C5CCC(=O)NC5=O)C6=O)C4)CC3)CC2)c(-c2cnn(C)c2)cc1Nc1ncc(Cl)c(Nc2ccc3nccnc3c2P(C)(C)=O)n1 (stereo not shown) [Compound 28, 5-(9-(1-(4-((5-chloro-4-((5-(dimethylphosphoryl)quinoxalin-6-yl)amino)pyrimidin-2-yl)amino)-5-methoxy-2-(1-methyl-1H-pyrazol-4-yl)phenyl)piperidin-4-yl)-2,9-diazaspiro[5.5]undecan-2-yl)-2-(2,6-dioxopiperidin-3-yl)-6-fluoroisoindoline-1,3-dione]
< 100 | 15 | COc1cc(N2CCN(C3CCN(CC4CCN(c5ccc6c(c5)C(=O)N(C5CCC(=O)NC5=O)C6=O)CC4)CC3)CC2)c(-c2cnn(C)c2)cc1Nc1ncc(Br)c(Nc2ccc3nccnc3c2P(C)(C)=O)n1 (stereo not shown) [Compound 31, 5-(4-((4-(4-(4-((5-bromo-4-((5-(dimethylphosphoryl)quinoxalin-6-yl)amino)pyrimidin-2-yl)amino)-5-methoxy-2-(1-methyl-1H-pyrazol-4-yl)phenyl)piperazin-1-yl)piperidin-1-yl)methyl)piperidin-1-yl)-2-(2,6-dioxopiperidin-3-yl)isoindoline-1,3-dione]
< 100 | 73 | COc1cc(N2CCC(N3CCN(c4ccc5c(c4)C(=O)N(C4CCC(=O)NC4=O)C5=O)CC3)CC2)c(-c2cnn(C)c2)cc1Nc1ncc(Cl)c(Nc2ccccc2P(C)(C)=O)n1 (stereo not shown) [Compound 115, 5-(4-(1-(4-((5-chloro-4-((2-(dimethylphosphoryl)phenyl)amino)pyrimidin-2-yl)amino)-5-methoxy-2-(1-methyl-1H-pyrazol-4-yl)phenyl)piperidin-4-yl)piperazin-1-yl)-2-(2,6-dioxopiperidin-3-yl)isoindoline-1,3-dione]
< 100 | 26 | COc1cc(N2CCC(CN3CCN(c4ccc(NC5CCC(=O)NC5=O)cc4F)CC3)CC2)c(-c2cnn(C)c2)cc1Nc1ncc(Cl)c(Nc2ccc(C3CC3)cc2P(C)(C)=O)n1 (stereo not shown) [Compound 158, 3-((4-(4-((1-(4-((5-chloro-4-((4-cyclopropyl-2-(dimethylphosphoryl)phenyl)amino)pyrimidin-2-yl)amino)-5-methoxy-2-(1-methyl-1H-pyrazol-4-yl)phenyl)piperidin-4-yl)methyl)piperazin-1-yl)-3-fluorophenyl)amino)piperidine-2,6-dione]
< 100 | 82 | COc1cc(N2CCC(CN3CCN(c4ccc(C(=O)NC5CCC(=O)NC5=O)nc4)CC3)CC2)c(-c2cnn(C)c2)cc1Nc1ncc(Br)c(Nc2ccc(-c3ccccc3)cc2P(C)(C)=O)n1 (stereo not shown) [Compound 64, 5-(4-((1-(4-((5-bromo-4-((3-(dimethylphosphoryl)-[1,1′-biphenyl]-4-yl)amino)pyrimidin-2-yl)amino)-5-methoxy-2-(1-methyl-1H-pyrazol-4-yl)phenyl)piperidin-4-yl)methyl)piperazin-1-yl)-N-(2,6-dioxopiperidin-3-yl)picolinamide]
100 to 500 | 301 | COc1cc(N2CCC(CN3CCCC4(CCN(c5ccc6c(c5)C(=O)N(C5CCC(=O)NC5=O)C6=O)CC4)C3)CC2)c(-c2cnn(C)c2)cc1Nc1ncc(Br)c(Nc2ccc(-c3ccccc3)cc2P(C)(C)=O)n1 (stereo not shown) [Compound 44, 5-(2-((1-(4-((5-bromo-4-((3-(dimethylphosphoryl)-[1,1′-biphenyl]-4-yl)amino)pyrimidin-2-yl)amino)-5-methoxy-2-(1-methyl-1H-pyrazol-4-yl)phenyl)piperidin-4-yl)methyl)-2,9-diazaspiro[5.5]undecan-9-yl)-2-(2,6-dioxopiperidin-3-yl)isoindoline-1,3-dione]
< 100 | 13 | COc1cc(N2CCC(CN3CCC4(CCCN(c5ccc6c(c5)C(=O)N(C5CCC(=O)NC5=O)C6=O)C4)CC3)CC2)c(-c2cnn(C)c2)cc1Nc1ncc(Cl)c(Nc2ccc3nccnc3c2P(C)(C)=O)n1 (stereo not shown) [Compound 10, 5-(9-((1-(4-((5-chloro-4-((5-(dimethylphosphoryl)quinoxalin-6-yl)amino)pyrimidin-2-yl)amino)-5-methoxy-2-(1-methyl-1H-pyrazol-4-yl)phenyl)piperidin-4-yl)methyl)-2,9-diazaspiro[5.5]undecan-2-yl)-2-(2,6-dioxopiperidin-3-yl)isoindoline-1,3-dione]
< 100 | 66 | COc1cc(N2CCC(N3CCC(N4CCC5(CCCN(c6ccc7c(c6)C(=O)N(C6CCC(=O)NC6=O)C7=O)C5)CC4)CC3)CC2)c(-c2cnn(C)c2)cc1Nc1ncc(Cl)c(Nc2ccc3nccnc3c2P(C)(C)=O)n1 (stereo not shown) [Compound 15, 5-(9-(1′-(4-((5-chloro-4-((5-(dimethylphosphoryl)quinoxalin-6-yl)amino)pyrimidin-2-yl)amino)-5-methoxy-2-(1-methyl-1H-pyrazol-4-yl)phenyl)-[1,4′-bipiperidin]-4-yl)-2,9-diazaspiro[5.5]undecan-2-yl)-2-(2,6-dioxopiperidin-3-yl)isoindoline-1,3-dione]
< 100 | 68 | COc1cc(N2CCC(CN3CCN(c4ccc(C5CCC(=O)NC5=O)cc4)CC3)CC2)c(-c2cnn(C)c2)cc1Nc1ncc(Cl)c(Nc2ccc(C3CC3)cc2P(C)(C)=O)n1 (stereo not shown) [Compound 152, 3-(4-(4-((1-(4-((5-chloro-4-((4-cyclopropyl-2-(dimethylphosphoryl)phenyl)amino)pyrimidin-2-yl)amino)-5-methoxy-2-(1-methyl-1H-pyrazol-4-yl)phenyl)piperidin-4-yl)methyl)piperazin-1-yl)phenyl)piperidine-2,6-dione]
< 100 | 51 | COc1cc(N2CCN(CC3CCN(c4ccc(C(=O)NC5CCC(=O)NC5=O)nc4)CC3)CC2)c(-c2cnn(C)c2)cc1Nc1ncc(Br)c(Nc2ccc(-c3ccccc3)cc2P(C)(C)=O)n1 (stereo not shown) [Compound 123, 5-(4-((4-(4-((5-bromo-4-((3-(dimethylphosphoryl)-[1,1′-biphenyl]-4-yl)amino)pyrimidin-2-yl)amino)-5-methoxy-2-(1-methyl-1H-pyrazol-4-yl)phenyl)piperazin-1-yl)methyl)piperidin-1-yl)-N-(2,6-dioxopiperidin-3-yl)picolinamide]
